{"source": "patent US10537575B2", "about": "“Phosphodiesterase inhibitors to repair brain and/or retinal injury in human newborns” (priority 2016, dated 2020)", "key": {"[1]": {"system": "Long-Evans rat pups (term neonatal HIE model)", "assay": "Brain structure, hematoxylin and eosin coronal sections at P30", "details": "HI", "procedure": "A well-established Vannucci rat model of term neonatal HIE, which combined a left common carotid artery ligation and a 2 hour exposure to hypoxia (8% oxygen) in 10-day-old (P10) rat pups, was used for the experiments, since this model is generally recognized to mimic the brain injuries observed in human term asphyxiated newborns. Briefly, the 10-day-old male Long-Evans rat pups were weighed and then deeply anesthetized with an intraperitoneal injection of fentanyl (0.2 mg/kg) and midazolam (1 mg/kg) to the point of unresponsiveness to noxious stimulation. Lidocaine-prilocaine cream (EMLA®; AstraZeneca Inc.) was applied to the ventral neck skin 30 minutes before surgery. The skin was cleaned with 2% chlorhexidine solution followed by 70% alcohol. A vertical incision was made along the ventral surface of the neck. The left common carotid artery was located, isolated, and then ligated with a single tight suture. Following the unilateral ligation, the skin incision was closed with an adhesive (n-butyl cyanoacrylate; 3 M VetBond Tissue Adhesive®; 3 M USA). The anesthesia was reversed with an intraperitoneal injection of naloxone (0.1 mg/kg) and flumazenil (1 mg/kg). […] For each rat pup, anesthesia time and surgical time were kept to a minimal time of less than 5-10 minutes. The pups were allowed to recover for approximately 1.5 h after surgery and then were placed in a sealed hypoxia chamber (Plastic Concepts, North Billerica, USA). The sealed chamber was infused with nitrogen until a level of 8% oxygen was reached, which was maintained for 2 h (oxygen analyzer model 600, Engineered Systems & Designs, Newark, Del.). The pups were allowed to recover for 30 minutes and then were returned to their cages with the mother. The rats undergoing the whole procedure were considered as the hypoxic-ischemic (HI) group (n=10-12 animals/groups). Sham operated rat pups (identical procedure as the HI group, but not the ligation and hypoxia) served as the control group (n=10-12 animals/groups). […]"}, "[2]": {"system": "Long-Evans rat pups (neonatal HI)", "assay": "Hippocampal injury and neuroinflammation after neonatal HI", "type": "in vivo", "details": "P30", "procedure": "Neonatal HI was induced in male Long-Evans rat pups at postnatal day 10 (P10) by left common carotid ligation followed by 2-hour exposure to 8% oxygen. Sham operated rat pups served as control. […] At P30, rats were sacrificed and their brains extracted. CA1, CA3 and dentate gyrus (DG) areas of the ipsilateral hippocampus were analyzed for microgliosis (Iba1) and astrogliosis (GFAP), neuronal number (NeuN), and vascular density (collagen IV)."}, "[3]": {"system": "Long-Evans rat pups (term neonatal HIE model)", "assay": "Endothelial cells count (lectin staining) at P30", "type": "in vivo", "details": "HI, not significant", "procedure": "Using the third slide prepared for each animal, an immunohistochemistry was used to assess the endothelial cells count. Sections were labeled with lectin (biotinylated isolectin B4) (Sigma-Aldrich: L2140, St-Louis, Mo., USA) (dilution 20 μg/mL in 0.1M tris-buffered saline [pH 7.4] and 0.5% Triton X-100, incubation time 2 hours at room temperature) (Springer M L et al., 2010). To detect lectin binding, the sections were incubated with streptavidin Alexa Fluor® 350 conjugate (Molecular Probes®, Life Technologies: S11249, Carlsbad, Calif., USA) dilution 1:300 in tris-buffered saline, incubation time 2 hours at room temperature (Ndode-Ekane X E et al., 2010). Then, these sections were rinsed with tris-buffered saline and cover slipped with Vectashield Mounting media containing 4,6-diamidino-2-phenylindole (DAPI) (Vector Laboratories: H1200, Burlingame, Calif., USA) to visualize cell nuclei (Ndode-Ekane X E et al., 2010; Hallene K L et al., 2006). The endothelial cells count was assessed as per previously described methods (Hallene K L et al., 2006, Iwai M et al., 2007; Noguchi T et al., 2008; Rigau V et al., 2007; Wintermark P et al., 2013). Cells co-labeled with lectin and DAPI were identified as endothelial cells (Springer M L et al., 2010; Hallene K L et al., 2006). To estimate the density of microvessels, single immunoreactive endothelial cells were counted as individual microvessels; endothelial staining in large vessels with tunica media were disregarded in the microvessel counts (Hallene K L et al., 2006, Iwai M et al., 2007; Noguchi T et al., 2008; Rigau V et al., 2007; Wintermark P et al., 2013; Shaikh H et al., 2015). […] One investigator took pictures of the respective fields of view at 10× magnification."}, "[4]": {"system": "Long-Evans rat pups (neonatal HI)", "assay": "Cerebellum injury after neonatal HI", "type": "in vivo", "details": "P30", "procedure": "Neonatal HI was induced in male Long-Evans rat pups at postnatal day 10 (P10) by left common carotid ligation followed by a 2-hour exposure to 8% oxygen; sham operated rat pups served as the control. […] At P30, the rats were sacrificed, and the cerebellum was extracted. The internal granular layers and molecular layers of the cerebellum were measured across all groups on cresyl violet-stained cerebellum sections. Astrocytes expressing Vascular Endothelial Growth Factor (VEGF) in the internal granular layers and molecular layers were quantified using immunohistochemistry."}, "[5]": {"system": "Sprague-Dawley rats (rat model of ROP)", "assay": "Flash electroretinograms in rat model of ROP (hyperoxia)", "type": "in vivo", "details": "sildenafil 50 mg/kg per os twice daily P15 to P21, P29, p<0.05", "procedure": "(§1) Sprague-Dawley rats were exposed to hyperoxia (i.e., 80% oxygen) interrupted by three 0.5-hour periods of normoxia (i.e., 21% oxygen) per day or room air only (i.e., 21% oxygen) from post-natal day 4 (P4) to 14 (P14). Pups were then housed in room air. […] Flash electroretinograms were recorded at P29 to assess the retinal function. At P31, retinas were extracted, sectioned and stained with toluidine blue to measure the thicknesses of the different retinal layers."}, "[6]": {"system": "Sprague-Dawley rats (rat model of ROP)", "assay": "Retinal layer thickness in rat model of ROP (hyperoxia)", "type": "in vivo", "details": "ROP animals; sildenafil 50 mg/kg per os twice daily P15 to P21; P31; p<0.05", "procedure": "as §1"}, "[7]": {"details": "oral sildenafil; known; cited from earlier work"}}, "data": [{"smiles": "CCCc1nn(C)c2c(=O)[nH]c(-c3cc(S(=O)(=O)N4CCN(C)CC4)ccc3OCC)nc12", "note": "[sildenafil]", "values": [{"measurement": "total brain size, median (IQR)", "setting": "[1]; high-dose sildenafil, not different from sham vehicle", "result": "93.05 (91.53; 93.95)"}, {"measurement": "total brain size, median (IQR)", "setting": "[1]; low-dose sildenafil, p<0.05 vs sham vehicle", "result": "92.19 (81.51; 97.58)"}, {"measurement": "total brain size, median (IQR)", "setting": "[1]; medium-dose sildenafil, not different from sham vehicle", "result": "94.05 (84.4; 95.0)"}, {"measurement": "neuronal number in the dentate gyrus", "setting": "[2]; HI, 50 mg/kg, vs sham vehicle", "result": "significantly increases"}, {"measurement": "number of activated microglia and reactive astrocytes in CA1 and dentate gyrus of the hippocampus", "setting": "[2]; HI, higher doses (10 mg/kg and 50 mg/kg)", "result": "significantly reduced"}, {"measurement": "vascular density in hippocampus", "setting": "[2]; treatment groups vs control group", "result": "no changes in vascular density"}, {"measurement": "endothelial cells number, median (IQR)", "setting": "[3]; sildenafil 2 mg/kg", "result": "230 (158; 273) endothelial cells/mm^2"}, {"measurement": "endothelial cells number, median (IQR)", "setting": "[3]; sildenafil 10 mg/kg (first mention, medium-dose)", "result": "196 (157; 225) endothelial cells/mm^2"}, {"measurement": "endothelial cells number, median (IQR)", "setting": "[3]; sildenafil 10 mg/kg as printed (second mention, third of low/medium/high)", "result": "193 (151; 217) endothelial cells/mm^2"}, {"measurement": "thickness of internal granular layers and molecular layers of the cerebellum", "setting": "[4]; oral sildenafil 2, 10 or 50 mg/kg twice daily 7 days", "result": "improvement in the overall thickness of these layers"}, {"measurement": "VEGF expressing astrocytes in cerebellum", "setting": "[4]; oral sildenafil", "result": "reduction of VEGF expressing astrocytes"}, {"measurement": "scotopic and photopic b-wave amplitudes", "setting": "[5]", "result": "improvement in scotopic and photopic b-wave amplitudes"}, {"measurement": "OPL thickness", "setting": "[6]", "result": "improved OPL thickness"}, {"measurement": "oral bioavailability", "setting": "[7]", "result": "good oral bioavailability"}]}]}
